This experiment concerns the target T1, DPP-IV (Homo sapiens, UniProt P27487).
T1 construct: purchased R&D Systems GmbH, Germany
Description: Assay for determining DP-IV inhibition (fluorometric, Gly-Pro-AMC substrate). The class given is biochemical. Particulars: Inhibition of DPP-IV, K(i) calculated from IC(50) with IC(50)=K(i)(1+[S]/Km), pH 8.0. As to the method: The inhibitory activity of compounds against DPP-IV can be determined by in vitro assay systems, which are themselves well established in the art. The assay results given in Table 5 were obtained according to the following method, employing a modified version of the assay described by Leiting et al., in an article entitled “Catalytic properties and inhibition of proline-specific dipeptidyl peptidases II, IV and VII” in Biochem. J. Vol. 371, pages 525-532 (2003):
DPP-IV activity was determined fluorometrically with Gly-Pro-AMC (where AMC stands for 7-amido-4-methylcoumarin, Bachem AG, Switzerland) as substrate. The reaction mixture contained 10 μl of 1 ng/μl DPP-IV (R&D Systems GmbH, Germany) and 80 μl of 25 mM Tris/HCl buffer, pH 8.0. Compounds were supplied as DMSO stock solutions and diluted in assay buffer to a maximal DMSO concentration of 1% in the assay. Prior to start of the reaction, the mixture was incubated for 30 min at room temperature. The reaction was started by addition of 10 μl of 100 μM substrate solution.
The fluorescence intensity was measured at excitation and emission wavelengths of 355 and 460 nm, respectively, in a FluoStar Galaxy Multiwell Plate (BMG Labtech, Germany). Fluorescence was determined 3 and 4 minutes after start of reaction and increase in fluorescence was used for determination of enzymatic activity. IC(50) values of tested compounds were determined via plotting enzymatic activity versus concentration of test compound and determining the concentration of test compound which yields a 50% inhibition of enzymatic activity.
K(i) values were calculated using the Michaelis-Menten equation for competitive inhibition: IC(50)=K(i)(1+[S]/Km)

Molecules are shown by their SMILES.

T1 sequence (P27487 whole entry): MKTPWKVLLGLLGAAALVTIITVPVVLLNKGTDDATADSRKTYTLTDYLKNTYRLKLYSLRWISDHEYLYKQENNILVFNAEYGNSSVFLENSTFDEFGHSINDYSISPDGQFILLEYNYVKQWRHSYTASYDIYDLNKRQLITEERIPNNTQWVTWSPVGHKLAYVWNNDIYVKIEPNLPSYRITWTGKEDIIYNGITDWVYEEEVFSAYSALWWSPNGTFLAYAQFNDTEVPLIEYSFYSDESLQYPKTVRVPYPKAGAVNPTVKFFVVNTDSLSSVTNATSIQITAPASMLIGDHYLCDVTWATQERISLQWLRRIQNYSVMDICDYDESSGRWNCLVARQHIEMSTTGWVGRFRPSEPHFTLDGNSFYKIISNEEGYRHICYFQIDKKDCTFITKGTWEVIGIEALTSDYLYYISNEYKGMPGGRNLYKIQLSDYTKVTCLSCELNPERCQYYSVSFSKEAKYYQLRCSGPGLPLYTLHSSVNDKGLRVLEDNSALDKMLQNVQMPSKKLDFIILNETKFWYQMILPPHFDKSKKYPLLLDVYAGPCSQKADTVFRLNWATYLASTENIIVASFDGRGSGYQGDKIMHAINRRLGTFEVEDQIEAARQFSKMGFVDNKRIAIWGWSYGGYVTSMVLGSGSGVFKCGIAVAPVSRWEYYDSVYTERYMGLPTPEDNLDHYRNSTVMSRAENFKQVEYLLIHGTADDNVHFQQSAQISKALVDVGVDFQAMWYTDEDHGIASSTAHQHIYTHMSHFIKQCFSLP

For orientation: Ki means the dissociation constant of the complex between target and ligand, obtained from inhibition or displacement. Regarding `N#C[C@@H]1CCCN1C(=O)CNCCNC1c2ccccc2CCc2ccccc21` [Example 1], the Ki was 51 to 500 nM. For `N#C[C@@H]1CCCN1C(=O)CNC1c2ccccc2CCc2ccccc21` [Example 2] the value was 500 to 30000 nM. For `CC(C)(CNC1c2ccccc2CCc2ccccc21)NCC(=O)N1CCC[C@H]1C#N` [Example 3] the value was 500 to 30000 nM; for `N#C[C@@H]1CCCN1C(=O)CNCC1c2ccccc2CCc2ccccc21` [Example 4], 500 to 30000 nM; for `N#C[C@@H]1CCCN1C(=O)CNCC(=O)N1c2ccccc2CCc2ccccc21` [Example 5], 500 to 30000 nM. Then `N#C[C@@H]1CCCN1C(=O)CNCCN1c2ccccc2C=Cc2ccccc21` [Example 7], with 51 to 500 nM; and `N#C[C@@H]1CCCN1C(=O)CNCCCN1c2ccccc2CCc2ccccc21` [Example 9], with 51 to 500 nM; and `N#C[C@@H]1CCCN1C(=O)CNCCC1(O)c2ccccc2CCc2ccccc21` [Example 10], with 51 to 500 nM.

For `N#C[C@@H]1CCCN1C(=O)CNCC=C1c2ccccc2CCc2ccccc21` [Example 11], the inhibition constant (Ki) was 51 to 500 nM. Consider `N#C[C@@H]1CCCN1C(=O)CNC1CCN(C2c3ccccc3CCc3ccccc32)CC1` [Example 12], for which the Ki was 51 to 500 nM. Turning to `N#C[C@@H]1CCCN1C(=O)CNC1CCN(C2c3ccccc3CCc3ccccc32)C1` (stereo partly shown) [Example 13], the inhibition constant Ki was 51 to 500 nM. Then `N#C[C@@H]1CCCN1C(=O)CNC1CN(C2c3ccccc3CCc3ccccc32)C1` [Example 14], with 500 to 30000 nM; and `N#C[C@@H]1CCCN1C(=O)CNC1c2ccc(Cl)cc2CCc2cccnc21` (stereo partly shown) [Example 15], with 500 to 30000 nM. With `N#C[C@@H]1CCCN1C(=O)CNCCC1(C#N)c2ccccc2CCc2ccccc21` [Example 16], the Ki was 51 to 500 nM. With `N#C[C@@H]1CCCN1C(=O)CNCCC1(C(N)=O)c2ccccc2CCc2ccccc21` [Example 17], the inhibition constant Ki is 6 to 50 nM. For `C[C@@H](CC1(C(N)=O)c2ccccc2CCc2ccccc21)NCC(=O)N1CCC[C@H]1C#N` [Example 18] the value was less than 6 nM.

As to `C[C@H](CC1(C(N)=O)c2ccccc2CCc2ccccc21)NCC(=O)N1CCC[C@H]1C#N` [Example 19], the Ki is 6 to 50 nM. For `N#C[C@@H]1CCCN1C(=O)CNCCNC1c2ccc(Cl)cc2CCc2cccnc21` (stereo partly shown) [Example 20] the value was 51 to 500 nM. Then `N#C[C@@H]1CCCN1C(=O)CNCCNC1c2ccccc2CCc2cccnc21` (stereo partly shown) [Example 21], with 51 to 500 nM.

As for `N#C[C@@H]1CCCN1C(=O)CNCCC1(C(N)=O)c2ccc(C(N)=O)cc2CCc2ccc(F)cc21` (stereo partly shown) [Example 22], the Ki is less than 6 nM. For `N#C[C@@H]1CCCN1C(=O)CNCCC1(c2nn[nH]n2)c2ccccc2CCc2ccccc21` [Example 23] the value was 6 to 50 nM; for `N#C[C@@H]1CCCN1C(=O)CNCCC1(c2nn[nH]n2)c2ccc(F)cc2CCc2ccc(F)cc21` (stereo partly shown) [Example 24], less than 6 nM.

Regarding `N#C[C@@H]1CCCN1C(=O)CNCCC1(c2nn[nH]n2)c2ccc(Cl)cc2CCc2cc(Cl)ccc21` [Example 25], the Ki was 6 to 50 nM.

For the molecule `C[C@@H](CN1C[C@@H]2C[C@H]1C(=O)N2Cc1cccc(F)c1)NCC(=O)N1CCC[C@H]1C#N` [Example 26], the inhibitory constant (Ki) is 51 to 500 nM. For `C[C@@H](CC1(c2nn[nH]n2)c2ccc(C(N)=O)cc2CCc2cc(C(N)=O)ccc21)NCC(=O)N1CCC[C@H]1C#N` [Example 27] the value was less than 6 nM. For `CNC(=O)c1ccc2c(c1)CCc1cc(C(=O)NC)ccc1C2(C[C@H](C)NCC(=O)N1CCC[C@H]1C#N)c1nn[nH]n1` [Example 28] the value was less than 6 nM. Regarding `C[C@@H](CC1(c2nn[nH]n2)c2ccc(C(=O)N(C)C)cc2CCc2cc(C(=O)N(C)C)ccc21)NCC(=O)N1CCC[C@H]1C#N` [Example 29], the Ki was less than 6 nM. Consider `CCNC(=O)c1ccc2c(c1)CCc1cc(C(=O)NCC)ccc1C2(C[C@H](C)NCC(=O)N1CCC[C@H]1C#N)c1nn[nH]n1` [Example 30], for which the Ki was less than 6 nM.

`CC(C)NC(=O)c1ccc2c(c1)CCc1cc(C(=O)NC(C)C)ccc1C2(C[C@H](C)NCC(=O)N1CCC[C@H]1C#N)c1nn[nH]n1` [Example 31]: the inhibition constant Ki is 6 to 50 nM. For `C[C@@H](CC1(c2nn[nH]n2)c2ccc(C(=O)N3CCC3)cc2CCc2cc(C(=O)N3CCC3)ccc21)NCC(=O)N1CCC[C@H]1C#N` [Example 32] the value was less than 6 nM.

`C[C@@H](CC1(c2nn[nH]n2)c2ccc(C(=O)N3CCOCC3)cc2CCc2cc(C(=O)N3CCOCC3)ccc21)NCC(=O)N1CCC[C@H]1C#N` [Example 33]: the Ki is less than 6 nM. For `N#C[C@@H]1CCCN1C(=O)CNCCC1(c2nn[nH]n2)c2ccc(C(N)=O)cc2CCc2cc(C(N)=O)ccc21` [Example 34] the value was less than 6 nM.

With `CNC(=O)c1ccc2c(c1)CCc1cc(C(=O)NC)ccc1C2(CCNCC(=O)N1CCC[C@H]1C#N)c1nn[nH]n1` [Example 35], the inhibitory constant (Ki) is less than 6 nM. Then `CN(C)C(=O)c1ccc2c(c1)CCc1cc(C(=O)N(C)C)ccc1C2(CCNCC(=O)N1CCC[C@H]1C#N)c1nn[nH]n1` [Example 36], with 6 to 50 nM; and `C[C@@H](CC1(C(N)=O)c2ccc(C(=O)N(C)C)cc2CCc2cc(C(=O)N(C)C)ccc21)NCC(=O)N1CCC[C@H]1C#N` [Example 39], with 6 to 50 nM. Then `C[C@@H](CC1(c2noc(C(F)(F)F)n2)c2ccc(C(=O)N(C)C)cc2CCc2cc(C(=O)N(C)C)ccc21)NCC(=O)N1CCC[C@H]1C#N` [Example 40], with 500 to 30000 nM. With `COC(=O)c1ccc2c(c1)CCc1cc(C(=O)OC)ccc1C2(C[C@H](C)NCC(=O)N1CCC[C@H]1C#N)c1nn[nH]n1` [Example 43], the Ki is less than 6 nM.

Take `C[C@@H](CC1(c2nn[nH]n2)c2ccc(C(=O)O)cc2CCc2cc(C(=O)O)ccc21)NCC(=O)N1CCC[C@H]1C#N` [Example 44]: the Ki was less than 6 nM.

For the molecule `N#C[C@@H]1CCCN1C(=O)CNCCC1(c2nn[nH]n2)c2cc(F)ccc2CCc2ccc(C(N)=O)cc21` (stereo partly shown) [Example 45], the Ki is 6 to 50 nM. Then `CN1C(=O)c2ccccc2C(CCNCC(=O)N2CCC[C@H]2C#N)(c2nn[nH]n2)c2ccccc21` (stereo partly shown) [Example 46], with 500 to 30000 nM; and `N#C[C@@H]1C[C@@H]2C[C@@H]2N1C(=O)CNCCC1(c2nn[nH]n2)c2ccc(C(N)=O)cc2CCc2cc(C(N)=O)ccc21` [Example 47], with less than 6 nM. In the case of `N#C[C@@H]1CCCN1C(=O)[C@@H](N)CN1C[C@@H]2C[C@H]1C(=O)N2Cc1cccc(F)c1` [Example 48], the Ki was less than 6 nM. Turning to `N#C[C@@H]1CCCN1C(=O)[C@@H](N)CN1C[C@@H]2C[C@H]1C(=O)N2Cc1c(Cl)cccc1Cl` [Example 49], the inhibitory constant (Ki) was less than 6 nM. Regarding `C[C@@H](c1ccc(F)cc1)N1C(=O)[C@@H]2CC1CN2C[C@H](N)C(=O)N1CCSC1` [Example 50], the inhibition constant (Ki) is 6 to 50 nM. Take `N#C[C@@H]1CCCN1C(=O)[C@@H](N)CN1CC2C[C@H]1C(=O)N2Cc1cc(F)cc(F)c1` [Example 51]: the inhibition constant (Ki) is less than 6 nM.

`N#C[C@@H]1C[C@@H]2C[C@@H]2N1C(=O)[C@@H](N)CN1CC2C[C@H]1C(=O)N2Cc1cc(F)cc(F)c1` [Example 52]: the inhibition constant (Ki) is less than 6 nM. `N#Cc1cccc(CN2C(=O)[C@@H]3CC2CN3C[C@H](N)C(=O)N2CCC[C@H]2C#N)c1` [Example 53]: the inhibitory constant (Ki) was less than 6 nM. Then `N#Cc1cccc(CN2C(=O)[C@@H]3CC2CN3C[C@H](N)C(=O)N2[C@H](C#N)C[C@@H]3C[C@@H]32)c1` [Example 54], with less than 6 nM; and `N#Cc1ccc(CN2C(=O)[C@@H]3CC2CN3C[C@H](N)C(=O)N2CCC[C@H]2C#N)cc1` [Example 55], with less than 6 nM; and `C[C@H](c1ccc(F)cc1)N1C(=O)[C@@H]2CC1CN2C[C@H](N)C(=O)N1CCC[C@H]1C#N` [Example 56], with less than 6 nM. Take `C[C@@H](c1ccc(F)cc1)N1C(=O)[C@@H]2CC1CN2C[C@H](N)C(=O)N1CCC[C@H]1C#N` [Example 57]: the inhibitory constant (Ki) is less than 6 nM.

As for `C[C@@H](c1ccc(F)cc1)N1C(=O)[C@@H]2CC1CN2C[C@H](N)C(=O)N1[C@H](C#N)C[C@@H]2C[C@@H]21` [Example 58], the Ki is less than 6 nM. Then `CC(C)(c1ccc(F)cc1)N1C(=O)[C@@H]2CC1CN2C[C@H](N)C(=O)N1CCC[C@H]1C#N` [Example 59], with less than 6 nM; and `N#C[C@@H]1CCCN1C(=O)[C@@H](N)CN1CC2C[C@H]1C(=O)N2Cc1cccc(C(N)=O)c1` [Example 60], with less than 6 nM; and `N#C[C@@H]1CCCN1C(=O)[C@@H](N)CN1CC2C[C@H]1C(=O)N2Cc1ccc(C(N)=O)cc1` [Example 61], with less than 6 nM. Then `CC(C)(c1ccc(F)cc1)N1C(=O)[C@@H]2CC1CN2C[C@H](N)C(=O)N1[C@H](C#N)C[C@@H]2C[C@@H]21` [Example 62], with less than 6 nM; and `N#C[C@@H]1CCCN1C(=O)[C@@H]1C[C@H](N2C[C@@H]3C[C@H]2C(=O)N3Cc2cccc(F)c2)CN1` [Example 63], with less than 6 nM; and `N#C[C@@H]1C[C@@H]2C[C@@H]2N1C(=O)[C@@H](N)CN1C[C@@H]2C[C@H]1C(=O)N2Cc1cccc(F)c1` [Example 64], with less than 6 nM.

(Values after patent publication US7553861B2, “Dipeptidyl peptidase-IV inhibitors” (Alantos Pharmaceuticals Holding, Inc., priority 2005, dated 2009).)
